The source of these data is patent US5883102A, “Pharmaceutically active compounds” (Astra Pharmaceuticals Limited, priority 1995, dated 1999).

Molecules are shown by their SMILES. Counter-ions that a name gives are not always drawn.

The target in this test is T1, human form of induced nitric oxide synthase (Homo sapiens, UniProt P35228).
T1 construct: Nitric oxide synthase is produced by cells in response to interferon; endogenous in cells; host or cells: DLD1 human colon adenocarcinoma cell line (European Collection of Animal Cell Culture, cell line number 90102540), induced with IL-1beta and IFN-gamma; crude lysate
The experiment in a line: activity against the human form of induced nitric oxide synthase, lysate of induced human colon adenocarcinoma cell line DLD1. The class given is biochemical. To be noted: IL-1β and IFN-γ induced, preincubated 1 hour at 37° C., then 1 hour at 37° C., read-out: IC50 (concentration of drug substance which gives 50% enzyme inhibition in the assay).

Description: Enzyme is prepared, after induction, from the cultured human colon adenocarcinoma cell line DLD1 (obtained from the European Collection of Animal Cell Culture--cell line number 90102540). DLD1 cells are cultured in RPMI 1640 medium supplemented with 10% foetal bovine serum, 4 mM L-glutamine and antibiotics (100 units/ml penicillin G, 100 μg/ml streptomycin and 0.25 μg/ml amphotericin B). Cells are routinely grown in 225 cm^3 flasks containing 35 ml kept at 37° C. and in a humified atmosphere containing 5% CO2.
Nitric oxide synthase is produced by cells in response to interferon-γ (IFN-γ) and inter-leukin-1β (IL-1β). The medium from confluent flasks is removed and replaced with 25 ml (per flask) of fresh medium containing 250 units/ml IL-1β and 1000 units/ml IFN-γ. After a period of 17-20 hours in culture, harvesting of cells is accomplished by scraping the cell monolayer from the flask surface into the culture medium. […]
Labelled L-citrulline is separated from labelled L-arginine using Dowex AG-50W. […] After allowing the samples to dry the L-citrulline is quantified by scintillation counting.
Compounds are tested at a range of concentrations and from the inhibitions obtained IC50 values are calculated.

Regarding `NC1=NC(c2ccccc2)Nc2ccccc21` (centres unmarked) [Example 1, 1,2-Dihydro-2-phenyl-4-quinazolinamine hydrochloride], the IC50 was under 25 µM.

`CCOC(=O)NCCC1N=C(N)c2ccccc2N1` (centres unmarked) [Example 52, Ethyl N-(4-Amino-1,2-dihydroquinazolin-2-ylethyl)carbamate hydrochloride]: the IC50 is under 25 µM.
